This is an account of results in patent publication US6569865B2, “Spiro 1-azabicyclo[2.2.2]octane-3,2′(3′h)-furo[2,3-b]pyridine” (priority 2001, dated 2003).

Assay [1] concerns the target α7 nAChR (Rattus norvegicus, UniProt Q05941). Briefly: Test A: 125I-α-bungarotoxin binding to rat hippocampal membranes (affinity at α7 nAChR subtype). As for the experimental part: Test A—Assay for Affinity at α7 nAChR Subtype
125I-α-Bungarotoxin (BTX) binding to rat hippocampal membranes. Rat hippocampi were homogenized in 20 volumes of cold homogenization buffer (HB: concentrations of constituents (mM): tris(hydroxymethyl)aminomethane 50; MgCl2 1; NaCl 120; KCl 5: pH 7.4). The homogenate was centrifuged for 5 minutes at 1000 g, the supernatant was saved and the pellet re-extracted. The pooled supernatants were centrifuged for 20 minutes at 12000 g, washed, and resuspended in HB. Membranes (30-80 μg) were incubated with 5 nM [^125I]α-BTX, 1 mg/mL BSA (bovine serum albumin), test drug, and either 2 mM CaCl2 or 0.5 mM EGTA [ethylene glycol-bis(β-aminoethylether)] for 2 hours at 21° C., and then filtered and washed 4 times over Whatman glass fibre filters (thickness C) using a Brandel cell harvester. […]
IC50 values and pseudo Hill coefficients (nH) were calculated using the non-linear curve-fitting program ALLFIT (DeLean A, Munson P J and Rodbard D (1977) Am. J. Physiol., 235:E97-E102). […]
where a value of n=1 was used whenever nH<1.5 and a value of n=2 was used when nH≧1.5. […] Ki values were determined using 6 or more drug concentrations. […]

Assay [2] has as its target α4 nAChR (Rattus norvegicus, UniProt P09483+P12390). In kind it is binding. As for the experimental part: Binding Data Analysis for Tests A and B
Ki values were determined using 6 or more drug concentrations.

Chain of α7 nAChR (Q05941 23-502): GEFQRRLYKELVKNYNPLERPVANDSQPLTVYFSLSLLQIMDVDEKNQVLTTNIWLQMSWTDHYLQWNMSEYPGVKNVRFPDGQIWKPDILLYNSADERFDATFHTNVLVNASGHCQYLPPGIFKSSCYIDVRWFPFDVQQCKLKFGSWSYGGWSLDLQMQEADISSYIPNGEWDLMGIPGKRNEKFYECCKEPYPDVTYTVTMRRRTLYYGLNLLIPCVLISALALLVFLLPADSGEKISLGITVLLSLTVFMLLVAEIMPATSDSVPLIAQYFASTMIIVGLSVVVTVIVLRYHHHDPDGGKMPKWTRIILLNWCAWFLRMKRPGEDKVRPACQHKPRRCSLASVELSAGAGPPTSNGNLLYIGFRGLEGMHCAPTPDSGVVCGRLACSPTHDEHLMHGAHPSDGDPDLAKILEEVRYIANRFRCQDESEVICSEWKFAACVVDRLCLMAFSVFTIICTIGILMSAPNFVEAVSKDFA
Chain of α4 nAChR (P09483 31-630): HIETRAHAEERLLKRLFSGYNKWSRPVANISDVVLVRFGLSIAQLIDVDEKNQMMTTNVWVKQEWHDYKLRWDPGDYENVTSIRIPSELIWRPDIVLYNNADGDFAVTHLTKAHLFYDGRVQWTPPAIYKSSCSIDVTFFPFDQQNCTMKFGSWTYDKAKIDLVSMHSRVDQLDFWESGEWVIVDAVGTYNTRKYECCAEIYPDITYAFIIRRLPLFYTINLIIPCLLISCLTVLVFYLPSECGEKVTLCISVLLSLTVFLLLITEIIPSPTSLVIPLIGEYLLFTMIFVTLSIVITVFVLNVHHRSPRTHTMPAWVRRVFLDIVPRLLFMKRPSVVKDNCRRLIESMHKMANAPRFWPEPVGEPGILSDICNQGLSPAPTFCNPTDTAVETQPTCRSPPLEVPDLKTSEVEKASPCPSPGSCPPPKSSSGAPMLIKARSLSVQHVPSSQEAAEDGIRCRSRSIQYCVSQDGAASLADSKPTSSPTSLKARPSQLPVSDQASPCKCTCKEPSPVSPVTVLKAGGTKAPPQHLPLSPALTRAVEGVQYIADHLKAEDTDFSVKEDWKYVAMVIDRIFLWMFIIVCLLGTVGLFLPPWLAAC
Chain of α4 nAChR (P12390 25-500): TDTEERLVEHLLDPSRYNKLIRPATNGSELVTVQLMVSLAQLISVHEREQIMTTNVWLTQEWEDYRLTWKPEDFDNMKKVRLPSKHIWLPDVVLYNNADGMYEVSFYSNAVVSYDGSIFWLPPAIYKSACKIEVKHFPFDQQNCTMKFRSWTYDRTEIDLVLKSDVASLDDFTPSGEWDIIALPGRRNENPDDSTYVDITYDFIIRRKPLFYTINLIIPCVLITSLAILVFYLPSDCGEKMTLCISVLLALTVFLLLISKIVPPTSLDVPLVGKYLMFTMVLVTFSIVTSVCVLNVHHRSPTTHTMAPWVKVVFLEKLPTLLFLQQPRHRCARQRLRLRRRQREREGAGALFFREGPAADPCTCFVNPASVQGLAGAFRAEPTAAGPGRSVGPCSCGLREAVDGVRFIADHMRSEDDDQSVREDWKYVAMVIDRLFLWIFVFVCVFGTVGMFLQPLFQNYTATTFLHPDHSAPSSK

As to “125I-α-Bungarotoxin [Compound 125I-α-BTX, reference compound]”, the Kd in assay [1] (read-out: KD of radioligand from saturation curves (one site model)) amounted to 1.67 nM.
`c1cc(-c2cnc3c(c2)C[C@@]2(CN4CCC2CC4)O3)co1` [Compound 3, (2′R)-5′-(3-furanyl)spiro[1-azabicyclo[2.2.2]octane-3,2′(3′H)-furo[2,3-b]pyridine]]: in assay [1] (125I-α-BTX displacement, rat hippocampal membranes), affinity was put at a Ki of 0.033 nM. The “nAChR Binding Selectivity (Ratio α4 Ki/α7 Ki)” value in assay [2] stood at 88000.
